Results taken from ChEMBL document CHEMBL1133410, “Synthesis of enantiomerically pure (+)- and (-)-18-methoxycoronaridine hydrochloride and their preliminary assessment as anti-addictive agents” (Bioorg Med Chem Lett, 2000).
Counter-ions that a name gives are not always drawn.

target: Mu-type opioid receptor (Bos taurus, UniProt P79350); assay: Binding affinity against Opioid receptor mu 1 of calf cortex using […] as radioligand
Sequence (P79350 whole entry): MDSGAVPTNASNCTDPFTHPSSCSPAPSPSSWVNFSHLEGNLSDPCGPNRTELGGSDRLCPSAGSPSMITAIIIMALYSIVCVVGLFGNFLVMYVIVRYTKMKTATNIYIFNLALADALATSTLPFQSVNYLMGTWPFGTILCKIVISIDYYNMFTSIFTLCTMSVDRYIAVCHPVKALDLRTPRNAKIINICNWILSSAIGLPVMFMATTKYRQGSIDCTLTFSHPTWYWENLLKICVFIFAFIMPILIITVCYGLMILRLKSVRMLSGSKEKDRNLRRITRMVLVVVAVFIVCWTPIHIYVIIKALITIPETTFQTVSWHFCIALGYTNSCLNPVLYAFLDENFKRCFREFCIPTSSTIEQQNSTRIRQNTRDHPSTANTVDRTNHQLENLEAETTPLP

| Structure (SMILES) | Ki |
| --- | --- |
| COCCC1CC2CN3CCc4c([nH]c5ccccc45)C(C(=O)OC)(C2)C13 (racemic) [ZOLUNICANT HYDROCHLORIDE] | 1100 nM |
| COCCC1CC2CN3CCc4c([nH]c5ccccc45)C(C(=O)OC)(C2)C13 (stereo in doubt; (+)) [ZOLUNICANT HYDROCHLORIDE] | 740 nM |
| COCCC1CC2CN3CCc4c([nH]c5ccccc45)C(C(=O)OC)(C2)C13 (stereo in doubt; (-)) [ZOLUNICANT HYDROCHLORIDE] | 13000 nM |
